Assay results reported in patent US11919901B2 (Syndax Pharmaceuticals, Inc., priority 2021, dated 2024).
Where two headings read alike, the source gives them in different places.

Key:
MV4-11 cells = test: Cell proliferation assay MV4;11 (CellTiter-Glo, 72 hours); format: cell-based; conditions: Homo sapiens, read-out: MV4
Summary of the method: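 Luminescent CellTiter-Glo readout after 72 h culture, 37 °C, 5% CO2, expressed relative to vehicle-treated wells, with maximal inhibition taken at the highest dose. MLL-rearranged MV4-11 leukemia cells; final compound range 0.632 to 2000 nM in eight steps.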

[1] = biological target: human Menin and N-terminal portion of human MLL (amino acids 4-43) (Homo sapiens (Human), UniProt O00255); test: Menin-MLL competition assay (HTRF); format: binding; conditions: 1 hr incubation
Chain of human Menin and N-terminal portion of human MLL (amino acids 4-43) (O00255 whole entry, the tested form may be a part): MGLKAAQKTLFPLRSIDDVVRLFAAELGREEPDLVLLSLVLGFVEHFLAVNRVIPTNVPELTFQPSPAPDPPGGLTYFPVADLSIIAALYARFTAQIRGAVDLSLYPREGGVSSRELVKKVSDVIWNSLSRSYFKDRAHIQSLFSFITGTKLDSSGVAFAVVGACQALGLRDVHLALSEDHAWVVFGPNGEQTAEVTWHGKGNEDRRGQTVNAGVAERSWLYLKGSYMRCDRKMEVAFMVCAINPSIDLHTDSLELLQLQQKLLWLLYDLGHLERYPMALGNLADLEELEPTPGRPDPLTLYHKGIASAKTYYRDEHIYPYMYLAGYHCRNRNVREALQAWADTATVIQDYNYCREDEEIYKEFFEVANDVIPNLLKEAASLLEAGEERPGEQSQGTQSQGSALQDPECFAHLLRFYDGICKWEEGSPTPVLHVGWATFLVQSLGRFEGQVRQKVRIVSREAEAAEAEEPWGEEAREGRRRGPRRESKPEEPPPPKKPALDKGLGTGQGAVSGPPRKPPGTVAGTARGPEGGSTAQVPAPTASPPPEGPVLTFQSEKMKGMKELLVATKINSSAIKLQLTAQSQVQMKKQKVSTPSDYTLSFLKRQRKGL
Source text: Menin-MLL is a competition assay between human Menin and N-terminal portion of human MLL representing amino acids 4-43 of the protein. The interaction between Menin and MLL peptide was monitored by HTRF employing Terbium labeled anti-His6 antibody directed to the N-terminal His6-tag on recombinant Menin and FITC group covalently attached to the MLL peptide. The N-terminal fragment of MLL, retained in all MLL fusion proteins, is involved in the interactions with Menin, and this protein-protein interaction is critical for the MLL fusion proteins mediated leukemogenic transformations.
For IC50 determination test compounds were prepared as 10 mM DMSO stock solutions. Considering DMSO as the vehicle in the assay system. Lower sub-stocks of 50 μM were prepared from the 10 mM stock solution. To test the compounds in assay, 3.16-fold serial dilutions are made in 100% DMSO. Mid-stock of 50× compounds (50 μM) were serially diluted (3.16 fold) in 100% DMSO in Polypropylene plate. In assay plate 1 micro-litre of the previously prepared compound dilution was stamped. H-FL-Menin diluted to 4 nM in assay buffer (50 mM Tris-HCl, pH 7.4, 50 mM NaCl, freshly prepared 1 mM DTT, 0.01% BSA, 0.005% Triton X-100) was pre-incubated with 8 nM anti-His6-Tb for 30 min at room temperature. […]

[2] = MV4;11 leukemia cell line, 72 hours, 11 IC50

CCN(C(=O)c1cc(F)ccc1Oc1cncnc1N1CC2(CCN(C[C@H]3CC[C@H](NS(=O)(=O)CC)CO3)CC2)C1)C(C)C [Example 52, N-Ethyl-2-((4-(7-(((2R,5S)-5-(ethylsulfonamido)tetrahydro-2H-pyran-2-yl)methyl)-2,7-diazaspiro[3.5]nonan-2-yl)pyrimidin-5-yl)oxy)-5-fluoro-N-isopropylbenzamide]
IC50 (MV4-11 cells; [2]): 100 to 1000 nM | IC50 [1]: < 100 nM

COCCN(C(=O)c1cc(F)ccc1Oc1cncnc1N1CC2(CCN(C[C@@H]3CC[C@@H](NS(=O)(=O)c4ccccc4)CO3)CC2)C1)C(C)C [Example 254, 5-Fluoro-N-isopropyl-N-(2-methoxyethyl)-2-((4-(7-(((2S,5R)-5-(phenylsulfonamido)tetrahydro-2H-pyran-2-yl)methyl)-2,7-diazaspiro[3.5]nonan-2-yl)pyrimidin-5-yl)oxy)benzamide]
IC50 (MV4-11 cells; [2]): < 100 nM

CCS(=O)(=O)N[C@@H]1CC[C@@H](CN2CCC3(CC2)CN(c2ncncc2Oc2ccc(F)cc2C(=O)N(C[C@@H](O)CO)C(C)C)C3)OC1 [Example 255, N-((R)-2,3-Dihydroxypropyl)-2-((4-(7-(((2S,5R)-5-(ethylsulfonamido)tetrahydro-2H-pyran-2-yl)methyl)-2,7-diazaspiro[3.5]nonan-2-yl)pyrimidin-5-yl)oxy)-5-fluoro-N-isopropylbenzamide]
IC50 (MV4-11 cells; MV4-11, 72 h, 11 IC50 (nM)): 100 to 1000 nM

CCS(=O)(=O)N[C@@H]1CC[C@@H](CN2CCC3(CC2)CN(c2ncncc2Oc2ccc(F)cc2C(=O)N(C(C)C)[C@@H]2CC[C@@H]2O)C3)OC1 [Example 258, 2-((4-(7-(((2S,5R)-5-(Ethylsulfonamido)tetrahydro-2H-pyran-2-yl)methyl)-2,7-diazaspiro[3.5]nonan-2-yl)pyrimidin-5-yl)oxy)-5-fluoro-N-((1R,2S)-2-hydroxycyclobutyl)-N-isopropylbenzamide]
IC50 (MV4-11 cells; [2]): < 100 nM
